From patent US11826332B2, “Antimicrobial compositions and uses thereof” (Board of Regents, The University of Texas System, priority 2016, dated 2023)

Assays:
[1] = tested on: Escherichia coli (E. coli); assay: Disinfection of colonized urinary catheter external surface, transient contact; assay type: cell-based; settings: in 1.5% CMC solution; transient contact exposure of a few minutes; three 1 cm catheter segments
[2] = tested on: Candida albicans (C. albicans); assay: as above; assay type: cell-based; settings: in 1.5% CMC solution; transient contact exposure of a few minutes; three 1 cm catheter segments
[3] = tested on: methicillin resistant Staphylococcus aureus (MRSA); assay: as above; assay type: cell-based; settings: in 1.5% CMC solution; transient contact exposure of a few minutes; three 1 cm catheter segments
[4] = tested on: vancomycin resistant Enterococcus (VRE); assay: as above; assay type: cell-based; settings: in 1.5% CMC solution; transient contact exposure of a few minutes; three 1 cm catheter segments
[5] = tested on: Candida glabarata (CG) biofilm; assay: Biofilm eradication model on silicone discs, time to complete eradication; assay type: cell-based; settings: Table 2; disinfecting solutions pH 4.0-4.5; >120 = not completely eradicated within 120 minutes exposure
[6] = tested on: methicillin-resistant Staphylococcus aureus (MRSA) biofilm; assay: as above; assay type: cell-based; settings: Table 2; disinfecting solutions pH 4.0-4.5; >120 = not completely eradicated within 120 minutes exposure
[7] = tested on: Candida albicans (CA) biofilm; assay: as above; assay type: cell-based; settings: Table 2; disinfecting solutions pH 4.0-4.5; >120 = not completely eradicated within 120 minutes exposure
[8] = tested on: multidrug-resistant Pseudomonas aeruginosa (PS) biofilm; assay: as above; assay type: cell-based; settings: Table 2; disinfecting solutions pH 4.0-4.5; >120 = not completely eradicated within 120 minutes exposure
[9] = tested on: MRSA biofilm; assay: Modified Kuhn's model, quantitative time-to-kill biofilm eradication; assay type: cell-based, Staphylococcus aureus; settings: 60 minutes exposure
Protocol: In vitro antimicrobial assessments of PG, CAP, and PG+CAP solutions were conducted using an established time-to-kill biofilm eradication model, the modified Kuhn's model (Kuhn et al., 2002). Briefly, 1 cm diameter silicone discs, were placed into a 24-well tissue culture plate and incubated with donor human plasma at 37° C. for 24 hours. The plasma was then removed, replaced with 1 mL of 5.5×10^5 CFU of bacterial (MRSA, Pseudomonas aeruginosa) or yeast (Candida albicans) inocula and incubated at 37 C for an additional 24 hrs. Inoculum was removed and the discs were washed shaking at 100 rpm for 30 minutes in 0.9% sterile saline in order to remove any planktonic organisms. After washing, discs were exposed to 1 mL various disinfectant solutions and incubated at 37° C. for 30 min or 60 min. Saline flush solution was used a negative control. […] Resulting solutions were quantitatively cultured by plating 100 μL onto Muller-Hinton (for bacteria) or Sabouraud dextrose (for yeast) agar. […]
Statistical analyses: The Kruskal-Wallis test was used to determine whether there was a significant difference in the medians in any of the lock solutions tested. Pairwise comparisons were assessed using the Mann-Whitney U test to […] performance of PG+CAP and CAP lock solutions at specified time points. […]

[10] = CRC Handbook of Chemistry and Physics; cited from earlier work

In the case of OO [0.3% H2O2, hydrogen peroxide], the “Median recoveries, E. coli” value [1] is reported as 2700 CFU/cm of catheter, the “Median recoveries, C. albicans” value [2] is reported as >50,000 CFU/cm of catheter and the “Median recoveries, MRSA” value [3] is reported as 0 CFU/cm of catheter. The “Median recoveries, VRE” value [4] was >50,000 CFU/cm of catheter.

With O=[N+]([O-])OCC(CO[N+](=O)[O-])O[N+](=O)[O-] [0.03% nitroglycerin (GTN), glyceryl trinitrate] the “time to complete biofilm eradication, CG” value [5] was greater than 120 min, the “time to complete biofilm eradication, MRSA” value [6] was greater than 120 min and the “time to complete biofilm eradication, CA” value [7] was greater than 120 min. The “time to complete biofilm eradication, PS” value [8] was greater than 120 min.

With CCCCCCCC(=O)O [0.4% Caprylic Acid (CAP), caprylic acid (octanoic acid)] the “reductions in viable cells in MRSA biofilm” value [9] was “able to reduce, but not completely eradicate”, the “time to complete biofilm eradication, CG” value [5] was 60 min and the “time to complete biofilm eradication, MRSA” value [6] was 120 min. The “time to complete biofilm eradication, CA” value [7] was 120 min, the “pK of CAP” value [10] was “approximately 4.8” and the “time to complete biofilm eradication, PS” value [8] was 60 min.
